Measured values from PMC8745342, “In Vitro and In Silico Kinetic Studies of Patented 1,7-diEthyl and 1,7-diMethyl Aminoalkanol Derivatives as New Inhibitors of Acetylcholinesterase” (International Journal of Molecular Sciences, 2021).

Columns and labels:
[1] = molecular target: T1, Acetylcholinesterase human (AChE) (Homo sapiens, UniProt P22303); experiment: AChE inhibition kinetics, Ellman's method combined with capillary electrophoresis; format: biochemical; details: for type of AChE inhibition: from Lineweaver-Burk plots, Km and Vmax; for IC50: from activity (%) versus inhibitor concentration plots; for Tilt Angle of Lineweaver-Burk line: acetylthiocholine 0.36–46.00 mM, n = 6; for amount of 4,4-dithio-bis-acid nitrobenzoic (DBAN) product in the presence of inhibitor: 0.66 mM without inhibitors
T1 construct: purchased Sigma-Aldrich (Poznań, Poland)
From the text: In this work, we used the combined Ellman’s method with the capillary electrophoresis method developed by us for the determination of 4,4-dithio-bis-acid nitrobenzoic (DBAN) (main enzyme reaction product) in the presence of acetylthiocholine (ACth), 5-thio-2-nitrobenzoic acid (NTB), 5,5′-dithio-bis-2-nitrobenzoic acid (DTNB), acetylcholinesterase (AChE) and inhibitors (I), (II), (III) and (IV) of acetylcholinesterase. For the development of this method, we optimized the buffer pH, separating background electrolyte (BGE) concentration, wavelength, temperature, and voltage. […] All these separation systems were tested to achieve the best separation parameters, resolution, and analysis time for all components in the reaction mixture. […] Separation was carried out at 15 kV. Each sample was added to the capillary under hydrodynamic injection.
The samples were injected under 5 psi pressure for 3 s. The experiments were performed under constant current conditions (85 μA). […] Before the assay, the capillary was conditioned with 0.1 M NaOH for 10 min at 10 psi and with H2O for 10 min at 10 psi. Then, it was electro conditioned with the running buffer for 20 min at +10 kV and pressure-conditioned with the running buffer for 10 min at 10 psi. Before each injection, the capillary was washed with 1 M NaOH for 2 min, then with H2O for 2 min, and finally with BGE for 2 min. At the end of each working day, the capillary was rinsed for 10 min with 0.1 M NaOH, 10 min with BGE, and 10 min with deionized water at 15 psi. Then, the capillary was exposed to air for 10 min at 20 psi and left empty.
Sample mixtures containing 4,4-dithio-bis-acid nitrobenzoic (DBAN) (main enzyme reaction product) in the presence of acetylthiocholine (ACth), 5-thio-2-nitrobenzoic acid (NTB), 5,5′-dithio-bis-2-nitrobenzoic acid (DTNB), acetylcholinesterase (AChE) and inhibitors (I), (II), (III) and (IV) were introduced automatically by pressure injection (with 2 psi pressure for 5 s on the sample solution). At the day’s end, vials with anode and cathode buffer were emptied and running buffer was filled again at the start of the next day before the analysis.
Acetylcholinesterase activity was determined according to the method by Ellman et al. and according to the procedure described by Rosilene R et al. but slightly modified. […] The tubes containing solutions were preincubated for 2 min at 25 °C. Then, 0.1 mL […] AChE was introduced into tubes 1–9, at an interval of 1 min. All 10 samples were incubated for 3 min at 25 °C. After incubation, the analytical samples were introduced into the capillary.
The inhibition constants (Ki) were calculated from the plotted Lineweaver–Burk curves for the four concentrations of the inhibitors (I), (II), (III) and (IV). The method was based on two steps (Figure 8).

AChE = details: model AChE inhibitors; read-out: IC50 (inhibition potency); cited from earlier work
[2] = inhibitor 0.08 mM, acetylthiocholine 0.36 mM
[3] = inhibitor 0.08 mM, acetylthiocholine 0.72 mM
[4] = inhibitor 0.08 mM, acetylthiocholine 1.44 mM
[5] = inhibitor 0.08 mM, acetylthiocholine 2.88 mM
[6] = inhibitor 0.08 mM, acetylthiocholine 5.75 mM
[7] = inhibitor 0.08 mM, acetylthiocholine 11.50 mM
[8] = inhibitor 0.08 mM, acetylthiocholine 23.00 mM
[9] = inhibitor 0.08 mM, acetylthiocholine 34.50 mM
[10] = inhibitor 0.08 mM, acetylthiocholine 46.00 mM

T1 sequence (P22303 32-614): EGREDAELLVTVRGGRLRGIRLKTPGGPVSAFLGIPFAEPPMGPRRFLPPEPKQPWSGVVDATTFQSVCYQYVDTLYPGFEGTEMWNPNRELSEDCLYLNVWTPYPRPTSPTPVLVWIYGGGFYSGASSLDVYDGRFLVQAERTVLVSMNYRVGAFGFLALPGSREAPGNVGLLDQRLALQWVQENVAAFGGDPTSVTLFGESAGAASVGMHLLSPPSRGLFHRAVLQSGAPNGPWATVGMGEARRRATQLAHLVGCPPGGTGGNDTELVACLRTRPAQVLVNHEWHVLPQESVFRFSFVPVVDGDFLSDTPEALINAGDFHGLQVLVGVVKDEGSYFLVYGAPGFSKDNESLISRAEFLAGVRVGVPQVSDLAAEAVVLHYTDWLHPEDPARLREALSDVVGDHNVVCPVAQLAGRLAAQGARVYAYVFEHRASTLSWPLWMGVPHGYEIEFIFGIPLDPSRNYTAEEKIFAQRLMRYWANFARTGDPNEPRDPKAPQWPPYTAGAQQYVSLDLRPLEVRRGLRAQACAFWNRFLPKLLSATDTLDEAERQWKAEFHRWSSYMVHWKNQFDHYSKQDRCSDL

## CC(C)NCC(O)CN1C(=O)C2C(C1=O)C1(C)C(=O)C2(C)C(c2ccccc2)=C1c1ccccc1 (stereo not drawn) [Compound (III)]
[1]
  type of AChE inhibition: competitive
  IC50: 33 ± 1 µM
[1]; inhibitor 0.01 mM
  Vmax: 0.63 ± 0.01 mM/min
  Tilt Angle of Lineweaver-Burk line: 60.01 ± 0.03 °
[1]; inhibitor 0.02 mM
  Vmax: 0.63 ± 0.02 mM/min
  Tilt Angle of Lineweaver-Burk line: 62.28 ± 0.03 °
[1]; inhibitor 0.04 mM
  Vmax: 0.64 ± 0.03 mM/min
  Tilt Angle of Lineweaver-Burk line: 67.38 ± 0.04 °
[1]; inhibitor 0.06 mM
  Vmax: 0.64 ± 0.03 mM/min
  Tilt Angle of Lineweaver-Burk line: 70.42 ± 0.02 °
[1]; inhibitor 0.08 mM
  Vmax: 0.63 ± 0.02 mM/min
  Tilt Angle of Lineweaver-Burk line: 71.50 ± 0.03 °
[1]; [2]
  1/Vo, mean: 10.1 min/mM
  Peak area of product (4,4-dithio-bis-acid nitrobenzoic), mean: 39497
  V0 (reaction speed), mean: 0.10 mM/min
[1]; [3]
  1/Vo, mean: 5.70 min/mM
  Peak area of product (4,4-dithio-bis-acid nitrobenzoic), mean: 72431
  V0 (reaction speed), mean: 0.18 mM/min
[1]; [4]
  1/Vo, mean: 3.55 min/mM
  Peak area of product (4,4-dithio-bis-acid nitrobenzoic), mean: 102230
  V0 (reaction speed), mean: 0.28 mM/min
  amount of 4,4-dithio-bis-acid nitrobenzoic (DBAN) product in the presence of inhibitor: 0.41 mM
[1]; [5]
  1/Vo, mean: 2.40 min/mM
  Peak area of product (4,4-dithio-bis-acid nitrobenzoic), mean: 135840
  V0 (reaction speed), mean: 0.42 mM/min
[1]; [6]
  1/Vo, mean: 2.05 min/mM
  Peak area of product (4,4-dithio-bis-acid nitrobenzoic), mean: 164404
  V0 (reaction speed), mean: 0.49 mM/min
[1]; [7]
  1/Vo, mean: 1.80 min/mM
  Peak area of product (4,4-dithio-bis-acid nitrobenzoic), mean: 183545
  V0 (reaction speed), mean: 0.56 mM/min
[1]; [8]
  1/Vo, mean: 1.70 min/mM
  Peak area of product (4,4-dithio-bis-acid nitrobenzoic), mean: 196660
  V0 (reaction speed), mean: 0.59 mM/min
[1]; [9]
  1/Vo, mean: 1.55 min/mM
  Peak area of product (4,4-dithio-bis-acid nitrobenzoic), mean: 198790
  V0 (reaction speed), mean: 0.65 mM/min
[1]; [10]
  1/Vo, mean: 1.50 min/mM
  Peak area of product (4,4-dithio-bis-acid nitrobenzoic), mean: 199716
  V0 (reaction speed), mean: 0.64 mM/min

## CN(C)CC(O)CN1C(=O)C2C(C1=O)C1(C)C(=O)C2(C)C(c2ccccc2)=C1c1ccccc1 (stereo not drawn) [Compound (IV)]
[1]
  type of AChE inhibition: competitive
  IC50: 35 ± 1 µM
[1]; inhibitor 0.01 mM
  Vmax: 0.63 ± 0.02 mM/min
  Tilt Angle of Lineweaver-Burk line: 59.58 ± 0.04 °
[1]; inhibitor 0.02 mM
  Vmax: 0.63 ± 0.02 mM/min
  Tilt Angle of Lineweaver-Burk line: 60.09 ± 0.04 °
[1]; inhibitor 0.04 mM
  Vmax: 0.64 ± 0.03 mM/min
  Tilt Angle of Lineweaver-Burk line: 65.58 ± 0.03 °
[1]; inhibitor 0.06 mM
  Vmax: 0.63 ± 0.01 mM/min
  Tilt Angle of Lineweaver-Burk line: 69.76 ± 0.03 °
[1]; inhibitor 0.08 mM
  Vmax: 0.64 ± 0.03 mM/min
  Tilt Angle of Lineweaver-Burk line: 70.40 ± 0.03 °
[1]; [2]
  1/Vo, mean: 9.85 min/mM
  Peak area of product (4,4-dithio-bis-acid nitrobenzoic), mean: 45817
  V0 (reaction speed), mean: 0.10 mM/min
[1]; [3]
  1/Vo, mean: 5.40 min/mM
  Peak area of product (4,4-dithio-bis-acid nitrobenzoic), mean: 84020
  V0 (reaction speed), mean: 0.19 mM/min
[1]; [4]
  1/Vo, mean: 3.50 min/mM
  Peak area of product (4,4-dithio-bis-acid nitrobenzoic), mean: 118587
  V0 (reaction speed), mean: 0.29 mM/min
  amount of 4,4-dithio-bis-acid nitrobenzoic (DBAN) product in the presence of inhibitor: 0.48 mM
[1]; [5]
  1/Vo, mean: 2.30 min/mM
  Peak area of product (4,4-dithio-bis-acid nitrobenzoic), mean: 157575
  V0 (reaction speed), mean: 0.43 mM/min
[1]; [6]
  1/Vo, mean: 2.05 min/mM
  Peak area of product (4,4-dithio-bis-acid nitrobenzoic), mean: 190708
  V0 (reaction speed), mean: 0.49 mM/min
[1]; [7]
  1/Vo, mean: 1.80 min/mM
  Peak area of product (4,4-dithio-bis-acid nitrobenzoic), mean: 212913
  V0 (reaction speed), mean: 0.56 mM/min
[1]; [8]
  1/Vo, mean: 1.70 min/mM
  Peak area of product (4,4-dithio-bis-acid nitrobenzoic), mean: 228126
  V0 (reaction speed), mean: 0.59 mM/min
[1]; [9]
  1/Vo, mean: 1.55 min/mM
  Peak area of product (4,4-dithio-bis-acid nitrobenzoic), mean: 230596
  V0 (reaction speed), mean: 0.65 mM/min
[1]; [10]
  1/Vo, mean: 1.50 min/mM
  Peak area of product (4,4-dithio-bis-acid nitrobenzoic), mean: 231671
  V0 (reaction speed), mean: 0.65 mM/min
